Measurements from article PMC11513842, “Development of an orally bioavailable CDK12/13 degrader and induction of synthetic lethality with AKT pathway inhibition” (Cell Reports Medicine, 2024).
Read-outs that look alike come from different tables or passages of the source.

Legend:
VCaP cells = assay: Cell viability assay (CellTiter-Glo, 5 days); assay type: cell-based, human
Experimental: Cells were seeded in 96-well plates and incubated at 37°C with 5% CO2 overnight. A series of compound dilutions were added into the cells. After 5 days incubation, cell proliferation was tested using the CellTiter-Glo assay (Promega) according to the manufacturer’s protocol. Luminescence was measured using the Infinite M1000 Pro plate reader (Tecan). Data analysis was conducted using GraphPad Prism software.

CDK12 and CDK13 = conditions: VCaP cells
Experimental: After treatment of varying conditions, cell lysates were prepared using RIPA buffer (ThermoFisher Scientific) supplemented with cOmplete protease inhibitor cocktail tablets (Sigma-Aldrich). The Pierce BCA Protein Assay Kit ([…]) was used to determine the protein concentrations. Proteins with an equal amount from each sample were loaded on NuPAGE 3–8% Tris-Acetate or 4–12% Bis-Tris protein gels (ThermoFisher Scientific) and subsequently transferred to membranes, which were blocked using 5% nonfat milk. Following blocking at room temperature for 1 h, the membrane was further incubated with varying primary antibodies at 4°C overnight. HRP-conjugated secondary antibodies were used for detection, and membrane imaging was conducted using an Odyssey Fc Imager (LI-COR Biosciences).

[1] = Pharmacokinetic profile in Sprague Dawley rats; assay type: in vivo, rat; conditions: SD rats
PC310 PDX = assay: PC310 patient-derived xenograft efficacy; assay type: in vivo, mouse; conditions: YJ1206 p.o. 100 mg/kg 3x/week, uprosertib p.o. 15 mg/kg 5x/week
Experimental: (§1) Six-week-old male CB17SCID mice obtained from Charles River (Stock # 236), were used to establish subcutaneous tumors on both dorsal flanks. Tumor dimensions were measured biweekly using digital calipers, applying the formula (π/6) (L × W^2), where L and W represent tumor length and width, respectively. At the study conclusion, mice were euthanized, and tumors were excised and weighed. The University of Michigan Institutional Animal Care and Use Committee (IACUC) approved all in vivo studies.
WA74 PDX model was developed at the University of Michigan during collection of a rapid autopsy case as part of the Michigan Legacy Tissue Program (MLTP). PC310 PDX model was obtained from Erasmus Medical Center, Rotterdam, the Netherlands. Both PDX lines were propagated in male CB17SCID mice by surgically implanting 2 mm^3 tumor fragments, coated with 100% Matrigel, into both flanks of mice. When tumors reached approximately 200 mm^3, mice were randomized into treatment groups. These groups received either 30 mg/kg YJ9069 via intravenous injection or 100 mg/kg YJ1206 by oral gavage, both administered three times per week, with or without 15 mg/kg uprosertib by oral gavage five days per week for 3–4 weeks. In accordance with IACUC guidelines, the maximum tumor size was limited to 2.0 cm in any dimension, and mice were euthanized if xenografts reached this endpoint.

[2] = test system: castrated VCaP and 22Rv1 CDX models; assay: Castrated VCaP and 22Rv1 CDX models, combination efficacy; assay type: in vivo, mouse; conditions: YJ1206 p.o. 100 mg/kg 3x/week, uprosertib p.o. 15 mg/kg 5x/week
Experimental: as §1
(§2) For the VCaP castration-resistant tumor model, 3×10^6 VCaP cells were subcutaneously injected into both dorsal flanks of mice using a serum-free medium mixed with 50% Matrigel (BD Biosciences). Upon tumors reaching palpable size (∼200 mm^3), animals underwent castration. When tumors regrew to their pre-castration size, mice were randomized for treatment with 30 mg/kg YJ9069 or vehicle via intravenous injection or 100 mg/kg YJ1206 or vehicle, with or without 15 mg/kg uprosertib by oral gavage. […]
For the 22Rv1 castration-resistant tumor model, mice underwent castration and then 12 days of recovery. Subsequently, 1 × 10^6 22Rv1 cells were subcutaneously injected into both dorsal flanks using a serum-free medium with 50% Matrigel (BD Biosciences). […]

[3] = test system: castrated VCaP xenograft (VCaP-CRPC); assay: VCaP castration-resistant prostate cancer xenograft efficacy; assay type: in vivo, mouse; conditions: castrated VCaP xenograft, 31 days; YJ1206 p.o. 100 mg/kg 3x/week, uprosertib p.o. 15 mg/kg 5x/week
Experimental: as §1
as §2, with “vehicle,” for “vehicle, with or without 15 mg/kg uprosertib by oral gavage.”

[4] = VCaP cell viability, linker optimization, Figure S4B, read-out: VCaP IC50

## O=C1CCC(N2C(=O)c3ccc(C=CC(=O)N4CCN(c5ccc(N(C(=O)NCc6ccccc6)C6CCC(Nc7ncc8ccccc8n7)CC6)cc5)CC4)cc3C2=O)C(=O)N1 (centres unmarked) [YJ1114]
VCaP cells; [4]
  IC50: 2020 nM
CDK12 and CDK13
  CDK12/13 degradation (immunoblot): significantly decreased CDK12/13 degradation and cell viability

## O=C1CCC(N2C(=O)c3ccc(-c4cccc(C(=O)N5CCN(c6ccc(N(C(=O)NCc7ccccc7)C7CCC(Nc8ncc9ccccc9n8)CC7)cc6)CC5)c4)cc3C2=O)C(=O)N1 (centres unmarked) [YJ1130]
VCaP cells; [4]
  IC50: 126 nM
CDK12 and CDK13
  CDK12/13 degradation (immunoblot): significantly decreased CDK12/13 degradation and cell viability

## O=C1CCC(N2C(=O)c3ccc(N4CCC(N5CCN(c6ccc(N(C(=O)NCc7ccccc7)C7CCC(Nc8ncc9ccccc9n8)CC7)cn6)CC5)CC4)cc3C2=O)C(=O)N1 (centres unmarked) [YJ1205]
CDK12 and CDK13
  CDK12/13 degradation (immunoblot): potent degradation effects
[1]; i.v. 2.5 mg/kg
  AUC(0-): 10615.68 ng·h/mL
  AUC(0-t): 10519.6 ng·h/mL
  CL: 3.9307 mL/min/kg
  Cmax: 4140 nM
  T1/2: 3.81 h
  Tmax: 0.08 h
[1]; oral 10 mg/kg
  AUC(0-): 6842.8 ng·h/mL
  AUC(0-t): 6679.0 ng·h/mL
  Cmax: 660 nM
  T1/2: 4.2 h
  Tmax: 4.7 h

## O=C(NCc1ccccc1)N(c1ccc(N2CCNCC2)cc1)[C@H]1CC[C@H](Nc2ncc3ccccc3n2)CC1 [YJ9068]
VCaP cells; VCaP cells, 5 days, Figure S1E, read-out: IC50
  IC50: 1080 nM
CDK12 and CDK13
  CDK12/13 degradation (immunoblot): did not affect target protein levels

## O=C1CCC(N2C(=O)c3ccccc3C2=O)C(=O)N1 (centres unmarked) [thalidomide, reference compound]
CDK12 and CDK13
  CDK12/13 degradation (immunoblot): did not affect target protein levels

## Cn1ncc(Cl)c1-c1cc(C(=O)N[C@H](CN)Cc2ccc(F)c(F)c2)oc1Cl [uprosertib, reference compound]
PC310 PDX
  progressive disease (PD), waterfall plot (RECIST): 100%
  tumor growth inhibition: only moderate or mild tumor inhibition
[2]
  anti-tumor efficacy: moderate anti-tumor efficacy
[3]
  progressive disease (PD), waterfall plot (RECIST): 100%
